# Experiments:
# [1] = system: Listeria monocytogenes, ATCC 15313; assay: agar diffusion, inhibition halo; format: cell-based
# Summary of the method: (§1)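 Discs (6 mm) impregnated with test doses of active ingredient placed on Müller-Hinton agar inoculated with 10^6 cells/ml suspensions from young pure cultures. Plates incubated at each strain's appropriate temperature; inhibition halo diameter measured including the 6 mm disc.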
# [2] = system: Micrococcus luteus, isolated from a spiced sausage; assay: agar diffusion, inhibition halo; format: cell-based
# Summary of the method: as §1
# [3] = system: Bacillus cereus, CECT 1178; assay: agar diffusion, inhibition halo; format: cell-based
# Summary of the method: as §1
# [4] = system: Escherichia coli, CECT 515; assay: agar diffusion, inhibition halo; format: cell-based
# Summary of the method: as §1
# [5] = system: Bacillus megaterium, ATCC 33085; assay: agar diffusion, inhibition halo; format: cell-based
# Summary of the method: as §1
# Salmonella = assay: microbiological quality of treated hamburgers and fresh sausage: Salmonella study
# Description: The tests were conducted on meat products such as hamburgers and fresh sausage at different doses, with and without the usual preservatives (sulfites).
# Each sample is prepared in quintuplicate and microbiological quality control over time is conducted, a triplicate of each sample being performed.
# The systematic testing used consisted of three steps: • a) Pre-enrichment in non-selective liquid medium. • b) Enrichment in selective liquid medium. • c) Differential isolation on selective solid means. a) Non-Selective Pre-Enrichment
# The medium of choice is buffered peptone water.
# 25 g of the product to be analyzed are aseptically weighed and diluted in 225 mL of buffered peptone water to obtain a 1:10 dilution. It is mixed well and taken to be incubated at 37° C. for 16-20 hours.
# The pre-enrichment culture is stirred and 10 mL thereof are taken with a sterile pipette, seeding it onto 100 mL of selenite-cysteine broth (Merck), incubating it at 37° C. for 18-24 hours.
# From the culture obtained in the selective liquid medium, selenite-cysteine broth, seeding is performed on the second dish, in duplicate and without overloading the loop, on xylose lysine deoxycholate (XLD, Merck) agar, Rambach agar (Merck), and SS agar (Merck).
# All the seeded dishes are incubated in an oven at 37° C. for 24-48 hours.
# The test is positive when typical colonies are detected in at least two of the four mediums, which are confirmed with supplementary biochemical tests.
# Two different raw meat products (sausages and hamburgers) treated with different allicin doses are prepared. • The used testing doses were: 25, 50 and 100 ppm.
# Five samples of each product (hamburger and sausage) are prepared, each one of them being analyzed in triplicate.
# The microbiological parameters analyzed were as follows: • Total mesophilic aerobes • Coliforms • Escherichia coli • Salmonella (presence/absence in 25 g) • Said parameters were analyzed at different times: • 0 days • 4 days • 7 days • The sample references resulted as follows: […]
# [6] = system: Penicillium sp, isolated from cheese; assay: agar diffusion, inhibition halo; format: cell-based
# Summary of the method: (§2)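 Agar diffusion on 2% Sabouraud-glucose medium used 6 mm cellulose discs carrying the test doses. Reported halos include the disc diameter.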
# [7] = system: Saccharomyces cerevisiae, CECT 1324; assay: agar diffusion, inhibition halo; format: cell-based
# Summary of the method: as §2
# [8] = system: Aspergillus terreus, isolated from the environment of the cheese maturation chamber; assay: agar diffusion, inhibition halo; format: cell-based
# Summary of the method: as §2
# [9] = system: Candida parapsilosis, isolated from cheese; assay: agar diffusion, inhibition halo; format: cell-based
# Summary of the method: as §2
# [10] = system: Candida magnoliae, isolated from cheese; assay: agar diffusion, inhibition halo; format: cell-based
# Summary of the method: as §2
# [11] = system: Aspergillus niger, CECT 2700; assay: agar diffusion, inhibition halo; format: cell-based
# Summary of the method: as §2
# [12] = system: Candida krusei, isolated from cheese; assay: agar diffusion, inhibition halo; format: cell-based
# Summary of the method: as §2
smiles,measurement,setting,value
"C=CCS[S+]([O-])CC=C (stereo not drawn) [Allicin, allyl allylthiosulfinate]",inhibition halo diameter,[1]; 25 ppm,18 mm
same,inhibition halo diameter,[1]; 50 ppm,24 mm
same,inhibition halo diameter,[1]; 100 ppm,30 mm
same,inhibition halo diameter,[2]; 25 ppm,19 mm
same,inhibition halo diameter,[2]; 50 ppm,25 mm
same,inhibition halo diameter,[2]; 100 ppm,32 mm
same,inhibition halo diameter,[3]; 25 ppm,22 mm
same,inhibition halo diameter,[3]; 50 ppm,29 mm
same,inhibition halo diameter,[3]; 100 ppm,35 mm
same,inhibition halo diameter,[4]; 25 ppm,14 mm
same,inhibition halo diameter,[4]; 50 ppm,17 mm
same,inhibition halo diameter,[4]; 100 ppm,21 mm
same,inhibition halo diameter,[5]; 25 ppm,23 mm
same,inhibition halo diameter,[5]; 50 ppm,27 mm
same,inhibition halo diameter,[5]; 100 ppm,34 mm
same,Salmonella growth,Salmonella; allicin doses of 50 and 100 ppm,able to inhibit Salmonella growth
same,Salmonella (in 25 g),"Salmonella; hamburger, 25 ppm of allicin (H-1), t = 0 days",presence
same,Salmonella (in 25 g),"Salmonella; hamburger, 25 ppm of allicin (H-1), t = 4 days",presence
same,Salmonella (in 25 g),"Salmonella; hamburger, 50 ppm of allicin (H-2), t = 0 days",presence
same,Salmonella (in 25 g),"Salmonella; hamburger, 50 ppm of allicin (H-2), t = 4 days",presence
same,Salmonella (in 25 g),"Salmonella; hamburger, 100 ppm of allicin (H-3), t = 0 days",presence
same,Salmonella (in 25 g),"Salmonella; hamburger, 100 ppm of allicin (H-3), t = 4 days",presence
same,Salmonella (in 25 g),"Salmonella; sausage, 25 ppm of allicin (S-1), t = 0 days",absence
same,Salmonella (in 25 g),"Salmonella; sausage, 25 ppm of allicin (S-1), t = 4 days",presence
same,Salmonella (in 25 g),"Salmonella; sausage, 50 ppm of allicin (S-2), t = 0 days",absence
same,Salmonella (in 25 g),"Salmonella; sausage, 50 ppm of allicin (S-2), t = 4 days",presence
same,Salmonella (in 25 g),"Salmonella; sausage, 100 ppm of allicin (S-3), t = 0 days",absence
same,Salmonella (in 25 g),"Salmonella; sausage, 100 ppm of allicin (S-3), t = 4 days",presence
same,inhibition halo diameter,[6]; 25 ppm,22 mm
same,inhibition halo diameter,[6]; 50 ppm,26 mm
same,inhibition halo diameter,[6]; 100 ppm,34 mm
same,inhibition halo diameter,[7]; 25 ppm,28 mm
same,inhibition halo diameter,[7]; 50 ppm,32 mm
same,inhibition halo diameter,[7]; 100 ppm,44 mm
same,inhibition halo diameter,[8]; 25 ppm,12 mm
same,inhibition halo diameter,[8]; 50 ppm,22 mm
same,inhibition halo diameter,[8]; 100 ppm,25 mm
same,inhibition halo diameter,[9]; 50 ppm,14 mm
same,inhibition halo diameter,[9]; 100 ppm,17 mm
same,inhibition halo diameter,[10]; 25 ppm,22 mm
same,inhibition halo diameter,[10]; 50 ppm,30 mm
same,inhibition halo diameter,[10]; 100 ppm,38 mm
same,inhibition halo diameter,[11]; 25 ppm,10 mm
same,inhibition halo diameter,[11]; 50 ppm,13 mm
same,inhibition halo diameter,[11]; 100 ppm,19 mm
same,inhibition halo diameter,[12]; 25 ppm,14 mm
same,inhibition halo diameter,[12]; 50 ppm,18 mm
same,inhibition halo diameter,[12]; 100 ppm,29 mm

# Reference: patent US20070160725A1, “Use of extracts and compounds of allium-genus plants as preservatives in the food and agri-food industries” (MOUSALA, S., L., priority 2004, published 2007)
